Test results taken from article PMC6287599, “2,6-Bis(2-Benzimidazolyl)Pyridine (BBP) Is a Potent and Selective Inhibitor of Small Conductance Calcium-Activated Potassium (SK) Channels” (Frontiers in Pharmacology, 2018).
“Also recorded” adds a separate entry of the source.

Target: T1, Kir3.1+Kir3.4 (Homo sapiens, UniProt P48544+P48549)
T1 sequence (P48549 1-501): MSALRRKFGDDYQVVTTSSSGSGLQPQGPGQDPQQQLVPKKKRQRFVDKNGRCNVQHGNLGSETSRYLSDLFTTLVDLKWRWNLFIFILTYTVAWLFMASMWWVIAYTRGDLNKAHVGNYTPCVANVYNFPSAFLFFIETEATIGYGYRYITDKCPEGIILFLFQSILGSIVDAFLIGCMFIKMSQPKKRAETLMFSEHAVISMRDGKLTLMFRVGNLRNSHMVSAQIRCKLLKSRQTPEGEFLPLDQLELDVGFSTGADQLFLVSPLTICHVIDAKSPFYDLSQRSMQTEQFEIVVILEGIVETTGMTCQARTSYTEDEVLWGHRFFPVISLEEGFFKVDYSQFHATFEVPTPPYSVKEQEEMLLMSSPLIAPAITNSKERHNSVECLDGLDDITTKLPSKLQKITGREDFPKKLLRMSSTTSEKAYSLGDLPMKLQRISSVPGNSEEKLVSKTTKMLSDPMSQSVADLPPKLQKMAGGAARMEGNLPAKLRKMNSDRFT
T1 sequence (P48544 1-419): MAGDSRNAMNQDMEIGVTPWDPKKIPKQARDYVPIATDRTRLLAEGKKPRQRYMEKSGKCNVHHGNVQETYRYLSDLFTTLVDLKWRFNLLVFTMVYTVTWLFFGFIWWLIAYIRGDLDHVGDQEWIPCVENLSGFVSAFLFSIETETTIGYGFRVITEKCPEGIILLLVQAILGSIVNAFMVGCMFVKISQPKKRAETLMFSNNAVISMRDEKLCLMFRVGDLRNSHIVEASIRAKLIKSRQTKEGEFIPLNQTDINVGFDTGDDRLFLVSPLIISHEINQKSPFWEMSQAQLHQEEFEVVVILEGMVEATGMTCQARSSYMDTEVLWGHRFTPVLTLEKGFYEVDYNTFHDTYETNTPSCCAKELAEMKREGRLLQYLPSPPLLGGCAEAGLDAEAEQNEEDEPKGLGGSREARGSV
Test: Two-electrode voltage clamp in Xenopus laevis oocytes, Kir3.1+Kir3.4
Assay type: cell-based
Details: BBP 10 μM, TEVC, n = 5
Procedure: cRNA was prepared from linearized plasmids using the mMESSAGE mMACHINE T7 kit (Ambion, USA) and quantified by UV spectroscopy (NanoDrop, Thermo Scientific, Wilmington, USA). Xenopus laevis oocytes were acquired from EcoCyte Bioscience (Castrop-Rauxel, Germany). Oocytes were injected with 50 nL cRNA and currents were recorded after 2 days of incubation at 19°C. Currents were recorded at a sampling rate of 10 kHz using a TEVC amplifier (Dagan CA-1B; IL, USA), and borosilicate glass recording electrodes (Module Ohm, Herlev, Denmark), made with a DMZ Universal Puller (Zeitz Instruments, Martinsried, Germany) with a resistance of 0.5–1 MΩ when filled with 2 M KCl. Oocytes were superfused with Kulori (pH 7.4) solution containing NaCl 90 mM, KCl 4 mM, MgCl2 1 mM, CaCl2 1 mM, 4-(2-hydroxyethyl)-1-piperazineethanesulfonic acid 5 mM, and currents were elicited with the voltage protocols previously indicated (Skarsfeldt et al., [2016]), from a holding potential of −80 mV. […]
To assess the effect of BBP on other calcium-activated potassium channels (hBK, hSK3 WT, rSK3 H491N, and hIK), each individual current was first normalized to its cell size using membrane's capacitance (pA/pF) before statistical analysis. […] Statistical significance between saline and the effect of both BBP and the corresponding reference compound was determined for each channel using one-way ANOVA analysis. […]

Compound: c1cc(-c2nc3ccccc3[nH]2)nc(-c2nc3ccccc3[nH]2)c1 [BBP, 2,6-Bis(2-benzimidazolyl)pyridine]
- Effect on Kir3.1+Kir3.4 current: did not have any effect; also recorded: did not significantly affect
